The values below come from patent US5714483A, “Antitussive” (TORAY Industries, Inc., priority 1992, dated 1998).

In experiment [1] the test system is capsaicin-induced cough. Kind of experiment: Capsaicin-induced cough in rats (30 μM capsaicin), plethysmography, Examples 1 and 2. In kind it is in vivo, SD male rats. As for the experimental part: (§1) SD male rats (body weight: 250-350 g) were used under non-anesthesic condition.
(§2) Respiration and cough were measured by plestimography. The body plestimograph used has a plastic cylinder having a diameter of 7.5 cm and a length of 15 cm, and consists of a cylindrical part in which the body of the rat is inserted and a cap part which covers the head. In the upper portion of the cylinder, a vent was formed so as to connect a respiration flow meter. To tightly close the cylinder, a collar made of rubber or celluloid was put on the neck of the rat. In the cap part, an inlet for introducing capsaicin and a ventilating hole were formed. The respiration of the rats was measured by measuring the movement of the thorax due to the respiration in terms of the change in the inner volume of the cylinder by the respiration flow meter. […] This large change is distinguished from the normal respiration and measured by the respiration flow meter. The number of this large change was measured, which is defined as the number of cough.
Capsaicin (30 μM) was converted to mist by ultrasonic nebulizer and the mist was sent by an artificial respirator into the cap covering the head of the rat through a silicone tube, thereby inducing cough. Capsaicin was transferred by the artificial respirator for inhalation at a dose of 20 ml/time and at a rate of 30 times/min.
The rats were made to inhale capsaicin for 5 minutes at 15 minutes before the administration of the test compound. Induction of cough was confirmed during the inhalation of capsaicin. The rats were made to inhale capsaicin for 5 minutes at 15, 60 and 120 minutes after administration of the compound, and the number of induced cough was measured during this period. The antitussive effect was evaluated in terms of the suppression rate, that is, the ratio of the number of cough after administration of the test compound to the number of cough before administration of the compound. The measured suppression rates were compared using Mann Whiteny U-test. If there is a difference at significant level (P<0.05), the difference was evaluated as significant. Capsaicin was dissolved in 10% ethanol and 10% Tween 80 and diluted with saline. The test compound was dissolved in saline. In any case, the test compound was intraperitoneally administered.

The test system of experiment [2] is capsaicin-induced cough. Kind of experiment: Capsaicin-induced cough in rats (60 μM capsaicin), ED50, Example 3. The note with it: Rattus norvegicus, ip, 0.5 h; i.p.; capsaicin 60 μM, 30 minutes after administration; read-out: ED50 (dose at which the number of cough is suppressed to half). In kind it is in vivo, SD male rats. Here is the method:
as §1, §2
Capsaicin (60 μM) was converted to mist by ultrasonic nebulizer and the mist was sent by an artificial respirator into the cap covering the head of the rat through a silicone tube, thereby inducing cough. Capsaicin was transferred by the artificial respirator for inhalation at a dose of 10 ml/time and at a rate of 70 times/min.
The rats were made to inhale capsaicin for 5 minutes at 270 minutes before the administration of the test compound. Induction of cough was confirmed during the inhalation of capsaicin. The rats were made to inhale capsaicin for 5 minutes at 30 minutes after administration of the test compound, and the number of induced cough during this period was measured. The antitussive effect was evaluated in terms of the suppression rate, that is, the ratio of the number of cough after administration of the test compound to the number of cough before administration of the test compound. Capsaicin was dissolved in saline. The test compounds were dissolved in aqueous 10% DMSO solution. In any case, the test compounds were intraperitoneally administered. The effectiveness of each of the test compounds is shown in terms of ED50 value which means the dose at which the number of cough is suppressed to half.

Take `Oc1ccc2c3c1O[C@H]1c4[nH]c5ccccc5c4C[C@@]4(O)[C@@H](C2)N(CC2CC2)CC[C@]314` [Compound 1, 17-cyclopropylmethyl-6,7-didehydro-4,5α-epoxy-3,14β-dihydroxy-6,7,2',3'-indolomorphinan]: in the experiment with capsaicin-induced cough [1] (0.03 mg/kg to 1 mg/kg, i.p., 15 minutes after administration), the “dose-dependence of antitussive effect” value is listed as “dose-dependent antitussive effect”. Moreover, in the experiment with capsaicin-induced cough [1] (1 mg/kg, i.p.), the antitussive effect entry is “a significant antitussive effect was observed” and the “peak of the antitussive effect (time after administration)” value was determined as 15 min. For the same compound, the “antitussive effect at 120 minutes compared with saline group” value in the experiment with capsaicin-induced cough [1] (1 mg/kg, i.p., 120 minutes after administration, vs saline group) is “a significant antitussive effect was observed even 120 minutes after the administration”. For the same compound, the “antitussive effect compared with morphine (0.3 mg/kg)” value in the experiment on capsaicin-induced cough [1] (Compound 1 1 mg/kg vs morphine 0.3 mg/kg, i.p., 15 minutes after administration) was “substantially identical to that by morphine (0.3 mg/kg)”.

As for `Oc1ccc2c3c1O[C@H]1c4[nH]c5c6c(ccc5c4C[C@@]4(O)[C@@H](C2)N(CC2CC2)CC[C@]314)CCCC6` [Compound 2, 17-cyclopropylmethyl-6,7-didehydro-4,5α-epoxy-3,14β-dihydroxy-6',7'-cyclohexeno-6,7,2',3'-indolomorphinan], the ED50 (in general, the dose that gives a 50% effect, or the effect in half of the subjects) with capsaicin-induced cough [2] was 0.0395 mg/kg.

As to `Oc1ccc2c3c1O[C@H]1c4nc5ccccc5cc4C[C@@]4(O)[C@@H](C2)N(CC2CC2)CC[C@]314` [Compound 4, 17-cyclopropylmethyl-6,7-didehydro-4,5α-epoxy-3,14β-dihydroxy-6,7,2',3'-quinolinomorphinan], in the experiment with capsaicin-induced cough [2], the ED50 was determined as 0.984 mg/kg.

`Oc1ccc2c3c1O[C@H]1c4[nH]c5c(ccc6cnccc65)c4C[C@@]4(O)[C@@H](C2)N(CC2CC2)CC[C@]314` [Compound 5, 17-cyclopropylmethyl-6,7-didehydro-4,5α-epoxy-3,14β-dihydroxy-[6',7'-b]-pyrido-6,7,2',3'-indolomorphinan]: the ED50 in the experiment on capsaicin-induced cough [2] was 0.0797 mg/kg.

For `COc1ccc2c3c1O[C@H]1c4[nH]c5c(ccc6cnccc65)c4C[C@@]4(O)[C@@H](C2)N(CC2CC2)CC[C@]314` [Compound 6, 17-cyclopropylmethyl-6,7-didehydro-4,5α-epoxy-14β-hydroxy-3-methoxy-[6',7'-b]-pyrido-6,7,2',3'-indolomorphinan], in the experiment on capsaicin-induced cough [2], the median effective dose (ED50) amounted to 0.0413 mg/kg.

With `COc1ccc2c3c1O[C@H]1c4[nH]c5ccccc5c4C[C@@]4(O)[C@@H](C2)N(CC2CC2)CC[C@]314` [Compound 7, 17-cyclopropylmethyl-6,7-didehydro-4,5α-epoxy-14β-hydroxy-3-methoxy-6,7,2',3'-indolomorphinan], in the experiment with capsaicin-induced cough [2], the ED50 is 0.0639 mg/kg.

As to `COc1cc(CNC(=O)CCCC/C=C/C(C)C)ccc1O` [capsaicin, reference compound], the “number of cough induced by inhalation of capsaicin” value with capsaicin-induced cough [1] (capsaicin 30 μM mist, 5 min inhalation) is reported as 22.5±1.2 times/5 minutes.
